Reference: article PMC11376040, “A novel PDHK inhibitor restored cognitive dysfunction and limited neurodegeneration without affecting amyloid pathology in 5xFAD mouse, a model of Alzheimer’s disease” (Alzheimer's Research & Therapy, 2024)

Experiments:
Assay in all cases: PDH-coupled PDHK assay (residual PDH activity, NADH absorbance at […] nm), […] ATP
Type in all cases: biochemical
[1] = target: T1, human PDHK1 (hPDHK1, pyruvate dehydrogenase kinase 1) (Homo sapiens, UniProt Q15118)
T1 construct: gene PDK1; recombinant, Flag-tag at the N-terminus; with PDH enzyme derived from porcine heart (PDH/PDHK complex)
T1 sequence (Q15118 29-436): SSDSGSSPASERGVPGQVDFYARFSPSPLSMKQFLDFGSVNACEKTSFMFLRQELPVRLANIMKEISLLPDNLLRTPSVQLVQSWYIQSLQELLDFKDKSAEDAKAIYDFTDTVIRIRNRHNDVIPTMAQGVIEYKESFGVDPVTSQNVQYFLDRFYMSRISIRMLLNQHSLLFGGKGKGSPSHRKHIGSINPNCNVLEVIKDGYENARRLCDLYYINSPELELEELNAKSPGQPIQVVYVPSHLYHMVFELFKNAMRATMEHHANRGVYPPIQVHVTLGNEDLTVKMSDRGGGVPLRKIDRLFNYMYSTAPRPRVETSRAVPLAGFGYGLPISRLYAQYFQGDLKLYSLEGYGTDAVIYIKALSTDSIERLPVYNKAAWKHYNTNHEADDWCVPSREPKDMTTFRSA

[2] = target: T2, human PDHK3 (hPDHK3, pyruvate dehydrogenase kinase 3) (Homo sapiens, UniProt Q15120)
T2 construct: gene PDK3; recombinant, Flag-tag at the N-terminus; with PDH enzyme derived from porcine heart (PDH/PDHK complex)
T2 sequence (Q15120 whole entry): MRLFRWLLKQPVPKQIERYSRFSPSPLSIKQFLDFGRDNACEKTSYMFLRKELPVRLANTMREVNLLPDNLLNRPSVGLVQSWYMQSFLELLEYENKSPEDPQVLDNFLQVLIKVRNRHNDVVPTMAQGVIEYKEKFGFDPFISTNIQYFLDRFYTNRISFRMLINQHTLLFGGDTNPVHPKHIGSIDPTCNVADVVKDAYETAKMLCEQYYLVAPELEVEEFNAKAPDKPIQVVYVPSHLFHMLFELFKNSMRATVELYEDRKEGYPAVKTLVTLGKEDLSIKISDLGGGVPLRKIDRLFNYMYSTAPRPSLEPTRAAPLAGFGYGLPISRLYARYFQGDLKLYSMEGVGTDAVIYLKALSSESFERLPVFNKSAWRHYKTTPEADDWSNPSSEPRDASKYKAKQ

[3] = target: T3, human PDHK2 (hPDHK2, pyruvate dehydrogenase kinase 2) (Homo sapiens, UniProt Q15119)
T3 construct: gene PDK2; recombinant, Flag-tag at the N-terminus; with PDH enzyme derived from porcine heart (PDH/PDHK complex)

IC50 [1]: 8.17 ± 0.56 nM | IC50 [2]: 50.5 ± 3.23 nM | IC50 [3]: 5.33 ± 0.12 nM
Structure (SMILES): C[C@H]1CN(C(=O)c2c(F)cc(C#N)cc2F)Cc2cnc([C@@](C)(O)C(F)(F)F)n21 [Compound A]
